In patent US20030133918A1, “Methods for ex vivo propagation of somatic stem cells” (priority 2001, published 2003):

How the values were obtained:
[1] = test system: freshly harvested murine bone marrow cells; experiment: Bone marrow colony formation in soft agar (fresh bone marrow); assay type: cell-based; conditions: fresh bone marrow cells; type I, II, III colonies
Experimental: The following numbers of freshly harvested murine bone marrow cells were plated in soft agar in replicates of 6 in 6-well plates: 1×10^5, 5×10^5, or 1×10^6. After 1-3 weeks, type I, II, and III colonies (see FIG. 2 for examples) were enumerated by phase microscopy.
Because of the difficulties anticipated in cloning Xs-dependent cells from heterogenous long-term bone marrow cultures, we decided to adopt a soft agar culture strategy. It is well known that hematopoietic progenitor cells will form colonies when grown in semi-solid medium (Dexter et al., 1984). […] In many bone marrow cell studies, conditions are selected to induce bone marrow cell differentiation. Methyl-cellulose or soft agar supplemented with lineage-promoting growth factors are widely used experimental systems (Dexter et al., 1984). For ideal SACK, we wished to minimize stimuli for differentiation. Therefore, we used agar developed in routine horse serum-supplemented long-term culture medium, without any additional growth factor source, as the gel medium for our studies. We followed procedures developed for detecting anchorage-independent growth of transformed tumor cells.
Given their associated HSC activity, LT-CFCs are predicted to divide with asymmetric cell kinetics. We evaluated whether Xs would increase the frequency of LT-CFC type I colonies in soft agar. Freshly prepared bone marrow cells were plated in soft agar developed in either control medium or medium containing 1 mM or 3 mM Xs.

[2] = test system: p53-inducible model cells; conditions: published studies (Sherley, 1991); cited from earlier work
[3] = test system: Xs-D lines; experiment: Albumin induction in adherent culture under conditions of quiescence; assay type: cell-based, rat; conditions: added to standard quiescence-induction protocol (confluency, 1% serum)
Text: In vivo, cell differentiation in somatic tissues has two important cell kinetics features. First, it occurs after a fixed number of cell divisions from the stem cell stage; and second, cells undergo a cell kinetics arrest before terminal differentiation occurs (Potten and Morris, 1988). Ideally, we wanted to mimic this process in culture with cells dividing with asymmetric stem cell kinetics. However, there was concern whether in vitro asymmetric divisions would be in appropriate balance with non-dividing cells. So, we decided to augment the growth arrest by growing cells to confluency in either Xs-free or Xs-containing medium and then inducing a total quiescent state by reducing the serum concentration to 1%. Many in vitro cell models have been described that undergo differentiation upon serum reduction.
The most dramatic differentiation result obtained in the adherent culture studies was the induction of albumin expression in Xs-D lines under conditions of quiescence (See example in FIG. 4). […] Three other treatments were added to the standard quiescence-induction protocol to evaluate their effect on albumin induction. These were DMSO to mimic glucocorticoid effects, growth on collagen as a form of extracellular matrix, and glucose-removal as noted above for its differentiation effects on gastrointestinal cell lines. […]

| Compound | Effect on frequency of colony types in soft agar [1] | Effectiveness as SACK agent compared with Xs [2] | Effect on degree/induction of albumin expression [3] |
| --- | --- | --- | --- |
| O=c1[nH]cnc2nc[nH]c12 [Hx, hypoxanthine] | increased the frequency of type II and III colonies at the expense of type I colonies | not as effective a SACK agent as Xs |  |
| C[S+](C)[O-] [DMSO] |  |  | no noticeable effect |
